Tested on: MCF-7 cells
Assay: 3D Matrigel growth assay of MCF-7 tumor spheroids
Type: cell-based, human
Description: FIG. 7 is a photographic and graphical representation showing MCF-7 3D cell growth in response to peptide antagonists. MCF-7 cells suspended in media containing 1% serum and 2.5% Matrigel (Matrigel media) were layered onto a thin layer of 100% Matrigel. Spheroids were allowed to form in Matrigel media containing VN, TRI or TRI supplemented with peptides P7 and P8. Cells were allowed to grow for 14 days with media+proteins changed every 3 days. (A) Phase contrast and fluorescence microscopy was used to obtain images of the spheroids treated with 90 nM P7, P8 or P7+8. The fluorescent images were subjected to analysis using Image J to calculate spheroid sizes. The images post-ImageJ analyses are depicted in the bottom panel of A. All the images depicted are representative images obtained from triplicate experiments with treatments tested in duplicates in each replicate experiment. Scale bar denotes 100 μm. (B) Scatter plot depicts mean spheroid size (μm^2) at Day 14 for each treatment, calculated using Image-J (90 nM peptide treatments are depicted here). Each data point in the graph is the average size of all spheroids present in a single field of view at 40× magnification. ** denotes p<0.01 and * denotes p<0.05. (C) To measure cell viability/proliferation the 3D culture was treated on Day 14 with 5% Alamar Blue dye for 4 hours and fluorescence intensities were recorded. Error bars indicate SEM. ** denotes p<0.01 Vs TRI and * denotes p<0.05 Vs TRI. The experiment was repeated twice with treatments tested in duplicate wells in each replicate experiment. TRI=IGF-I:IGFBP-5:VN trimeric complex (equimolar at 10 nM concentrations).
To closely mimic in vivo conditions, cells were grown in a 3D matrix (Matrigel) closely resembling in vivo extracellular matrix physiology. MCF-7 cells suspended in growth media containing 1% serum and 2.5% Matrigel (Matrigel media) were layered onto a thin layer of 100% Matrigel. Tumor spheroids were allowed to form for 3 days after which spent media was replenished with Matrigel media containing VN only, trimeric complex, or trimeric complex supplemented with increasing concentrations of peptides (P7, P8 or P7+P8). Cells were allowed to grow for additional 11 days with media+proteins changed every 3 days. Spheroid morphology was assessed using phase-contrast microscopy and cell viability was measured using AlamarBlue, a fluorescent metabolic dye.

LFSSEESNLGANNYDDYRMDWL (listed as Homo sapiens) [Peptide P7, human VN motif 7 mimic]
TRI-stimulated cell viability (AlamarBlue) (90 nM peptide, Day 14, 3D Matrigel culture): significantly inhibit | Size of TRI-treated tumor spheroids (phase-contrast microscopy) (increasing concentrations of peptides, Matrigel 3D culture, 14 days): decrease with increasing concentrations

Source: US10106582B2, “Complex-formation-modulating agents and uses therefor” (Factor Therapeutics Limited, priority 2012, dated 2018)
